Measurements from US5250426A, “Molecules with antibody combining sites that induce asymmetry” (The Scripps Research Institute, priority 1991, dated 1993).

System: monoclonal antibodies induced by Compound A
Experiment: Inhibition of the antibody-catalyzed hydrolysis of Compound 1 by free Compound A
Assay type: biochemical, mice
Settings: all three monoclonal antibodies
Description: The production of Compound 2 by a monoclonal antibody composition of this invention was assayed at a concentration of 20 μM monoclonal antibody and 1.5 mM Compound 1 in 10 percent dimethylsulfoxide (DMSO)/ATE buffer (0.52M ACES, 0.52M Tris, 0.01M ethanolamine pH 9.0) at 25° C. The initial rate of hydrolysis of Compound 1 by the monoclonal antibodies produced by three hybridomas followed Michaelis-Menten kinetics (Table 1 hereinafter).

CC1(OP(=O)(O)Cc2ccc(CCN)cc2)CCCCC1 [Compound A]
inhibition of the hydrolytic reaction by addition of free Compound A: extensive inhibition
